# Assays:
# Escherichia coli [1] = assay: Antibacterial activity against resistant Escherichia coli SQ1712058G incubated for 20 hrs by broth dilution method; assay type: functional
# Escherichia coli [2] = assay: Antibacterial activity against resistant Escherichia coli SQ171 incubated for 20 hrs by broth dilution method; assay type: functional; conditions: SQ171, 20 h
# Staphylococcus aureus [3] = assay: Antibacterial activity against resistant Staphylococcus aureus UCN14 incubated for 18 hrs by broth dilution method; assay type: functional; conditions: UCN14, 18 h
# Enterococcus faecium [4] = assay: Antibacterial activity against multi drug resistant Enterococcus faecium NCTC 7171 incubated for 24 hrs by broth dilution method; assay type: functional; conditions: NCTC 7171, 24 h
# Staphylococcus aureus [5] = assay: Antibacterial activity against resistant Staphylococcus aureus UCN18 incubated for 18 hrs by broth dilution method; assay type: functional; conditions: UCN18, 18 h
# Escherichia coli [6] = assay: Antibacterial activity against resistant Escherichia coli DK2058G incubated for 20 hrs by broth dilution method; assay type: functional
# Escherichia coli [7] = assay: Antibacterial activity against resistant Escherichia coli DK3535 incubated for 20 hrs by broth dilution method; assay type: functional; conditions: DK3535, 20 h
# Staphylococcus aureus [8] = assay: Antibacterial activity against resistant Staphylococcus aureus UCN17 incubated for 18 hrs by broth dilution method; assay type: functional; conditions: UCN17, 18 h
# Staphylococcus aureus [9] = assay: Antibacterial activity against wild type Staphylococcus aureus ATCC 29213 incubated for 18 hrs by broth dilution method; assay type: functional; conditions: ATCC 29213, 18 h
# Enterococcus faecium [10] = assay: Potency index, ratio of solithromycin MIC to compound MIC for multi drug resistant Enterococcus faecium NCTC 7171; assay type: functional
# Escherichia coli [11] = assay: Antibacterial activity against resistant Escherichia coli DK incubated for 20 hrs by broth dilution method; assay type: functional
# Acinetobacter baumannii [12] = assay: Antibacterial activity against multi drug resistant Acinetobacter baumannii ATCC 19606 incubated for 24 hrs by broth dilution method; assay type: functional; conditions: ATCC 19606 = CIP 70.34 = JCM 6841, 24 h
# Escherichia coli [13] = assay: Potency index, ratio of solithromycin MIC to compound MIC for resistant Escherichia coli SQ171; assay type: functional
# Escherichia coli [14] = assay: Potency index, ratio of solithromycin MIC to compound MIC for resistant Escherichia coli SQ1712058G; assay type: functional
# [15] = Selectivity index, ratio of CC50 for African green monkey Vero cells to MIC for multi drug resistant Enterococcus faecium NCTC 7171; assay type: toxicity; conditions: read-out: Selectivity Index
# [16] = Cytotoxicity against African green monkey Vero cells assessed as reduction in cell viability after 72 hrs by MTS/PMS assay; assay type: cell-based; conditions: chlorocebus sabaeus
# Acinetobacter baumannii [17] = assay: Potency index, ratio of solithromycin MIC to compound MIC for multidrug-resistant Acinetobacter baumannii ATCC 19606; assay type: functional, ATCC 19606 = CIP 70.34 = JCM 6841
# Escherichia coli [18] = assay: Potency index, ratio of solithromycin MIC to compound MIC for resistant Escherichia coli DK; assay type: functional
# Escherichia coli [19] = assay: Potency index, ratio of solithromycin MIC to compound MIC for resistant Escherichia coli DK3535; assay type: functional
# Staphylococcus aureus [20] = assay: Potency index, ratio of solithromycin MIC to compound MIC for wild type Staphylococcus aureus ATCC 29213; assay type: functional
smiles,measurement,setting,value
CC[C@H]1OC(=O)[C@@](C)(F)C(=O)[C@H](C)[C@@H](O[C@@H]2O[C@H](C)C[C@H](N(C)C)[C@H]2O)[C@](C)(OC)C[C@@H](C)C(=O)[C@H](C)[C@H]2N(CCCCn3cc(COc4ccccc4)nn3)C(=O)O[C@]12C,MIC,Escherichia coli [1],> 32 µg/mL
same,MIC,Escherichia coli [2],> 32 µg/mL
same,MIC,Staphylococcus aureus [3],64 µg/mL
same,MIC,Enterococcus faecium [4],12 ng/mL
same,MIC,Staphylococcus aureus [5],4 µg/mL
same,MIC,Escherichia coli [6],4 µg/mL
same,MIC,Escherichia coli [7],4 µg/mL
same,MIC,Staphylococcus aureus [8],8 µg/mL
same,MIC,Staphylococcus aureus [9],≤ 0.0625 µg/mL
same,Ratio,Enterococcus faecium [10],2
same,MIC,Escherichia coli [11],2 µg/mL
same,MIC,Acinetobacter baumannii [12],25 µg/mL
CC[C@H]1OC(=O)[C@@](C)(F)C(=O)[C@H](C)[C@@H](O[C@@H]2O[C@H](C)C[C@H](N(C)C)[C@H]2O)[C@](C)(OC)C[C@@H](C)C(=O)[C@H](C)[C@H]2N(CCCCn3cc(-c4ccc(OC)cc4)nn3)C(=O)O[C@]12C,MIC,Escherichia coli [1],> 64 µg/mL
same,MIC,Escherichia coli [2],64 µg/mL
same,MIC,Staphylococcus aureus [3],> 128 µg/mL
same,MIC,Enterococcus faecium [4],1.5 ng/mL
same,MIC,Staphylococcus aureus [5],32 µg/mL
same,MIC,Escherichia coli [6],2 µg/mL
same,MIC,Escherichia coli [7],2 µg/mL
same,MIC,Staphylococcus aureus [8],32 µg/mL
same,MIC,Staphylococcus aureus [9],≤ 0.0625 µg/mL
same,Ratio,Enterococcus faecium [10],16
same,MIC,Escherichia coli [11],2 µg/mL
same,MIC,Acinetobacter baumannii [12],25 µg/mL
CC[C@H]1OC(=O)[C@@](C)(F)C(=O)[C@H](C)[C@@H](O[C@@H]2O[C@H](C)C[C@H](N(C)C)[C@H]2O)[C@](C)(OC)C[C@@H](C)C(=O)[C@H](C)[C@H]2N(CCCCn3cc(-c4cc(OC)cc([N+](=O)[O-])c4)nn3)C(=O)O[C@]12C,MIC,Escherichia coli [1],8 µg/mL
same,Ratio,Escherichia coli [13],2
same,MIC,Escherichia coli [2],16 µg/mL
same,Ratio,Escherichia coli [14],4
same,MIC,Staphylococcus aureus [3],64 µg/mL
same,MIC,Enterococcus faecium [4],1.5 ng/mL
same,MIC,Staphylococcus aureus [5],32 µg/mL
same,MIC,Escherichia coli [6],2 µg/mL
same,MIC,Escherichia coli [7],2 µg/mL
same,MIC,Staphylococcus aureus [8],32 µg/mL
same,MIC,Staphylococcus aureus [9],≤ 0.0625 µg/mL
same,Ratio,Enterococcus faecium [10],16
same,MIC,Escherichia coli [11],4 µg/mL
same,MIC,Acinetobacter baumannii [12],50 µg/mL
CC[C@H]1OC(=O)[C@@](C)(F)C(=O)[C@H](C)[C@@H](O[C@@H]2O[C@H](C)C[C@H](N(C)C)[C@H]2O)[C@](C)(OC)C[C@@H](C)C(=O)[C@H](C)[C@H]2N(CCCCn3cc(-c4ccsc4)nn3)C(=O)O[C@]12C,selectivity ratio,[15],270000
same,MIC,Escherichia coli [1],> 64 µg/mL
same,CC50 at 72 h,[16],25 µg/mL
same,MIC,Escherichia coli [2],8 µg/mL
same,Ratio,Acinetobacter baumannii [17],2
same,MIC,Staphylococcus aureus [3],128 µg/mL
same,MIC,Enterococcus faecium [4],0.094 ng/mL
same,MIC,Staphylococcus aureus [5],128 µg/mL
same,MIC,Escherichia coli [6],4 µg/mL
same,MIC,Escherichia coli [7],4 µg/mL
same,MIC,Staphylococcus aureus [8],128 µg/mL
same,MIC,Staphylococcus aureus [9],0.25 µg/mL
same,Ratio,Enterococcus faecium [10],256
same,MIC,Escherichia coli [11],4 µg/mL
same,MIC,Acinetobacter baumannii [12],12 µg/mL
CC[C@H]1OC(=O)[C@@](C)(F)C(=O)[C@H](C)[C@@H](O[C@@H]2O[C@H](C)C[C@H](N(C)C)[C@H]2O)[C@](C)(OC)C[C@@H](C)C(=O)[C@H](C)[C@H]2N(CCCCn3cc(-c4cnc(N)s4)nn3)C(=O)O[C@]12C,MIC,Escherichia coli [1],> 32 µg/mL
same,MIC,Escherichia coli [2],> 32 µg/mL
same,MIC,Staphylococcus aureus [3],64 µg/mL
same,MIC,Enterococcus faecium [4],24 ng/mL
same,MIC,Staphylococcus aureus [5],64 µg/mL
same,MIC,Escherichia coli [6],1 µg/mL
same,MIC,Escherichia coli [7],1 µg/mL
same,MIC,Staphylococcus aureus [8],64 µg/mL
same,MIC,Staphylococcus aureus [9],0.25 µg/mL
same,MIC,Escherichia coli [11],2 µg/mL
same,MIC,Acinetobacter baumannii [12],> 50 µg/mL
CC[C@H]1OC(=O)[C@@](C)(F)C(=O)[C@H](C)[C@@H](O[C@@H]2O[C@H](C)C[C@H](N(C)C)[C@H]2O)[C@](C)(OC)C[C@@H](C)C(=O)[C@H](C)[C@H]2N(CCCCn3cc(-c4cc(O)cc([N+](=O)[O-])c4)nn3)C(=O)O[C@]12C,selectivity ratio,[15],2e+06
same,MIC,Escherichia coli [1],> 32 µg/mL
same,CC50 at 72 h,[16],12 µg/mL
same,MIC,Escherichia coli [2],32 µg/mL
same,MIC,Staphylococcus aureus [3],16 µg/mL
same,MIC,Enterococcus faecium [4],0.0059 ng/mL
same,Ratio,Escherichia coli [18],4
same,MIC,Staphylococcus aureus [5],8 µg/mL
same,MIC,Escherichia coli [6],4 µg/mL
same,MIC,Escherichia coli [7],8 µg/mL
same,MIC,Staphylococcus aureus [8],4 µg/mL
same,MIC,Staphylococcus aureus [9],≤ 0.0625 µg/mL
same,Ratio,Enterococcus faecium [10],4096
same,MIC,Escherichia coli [11],0.5 µg/mL
same,MIC,Acinetobacter baumannii [12],25 µg/mL
CC[C@H]1OC(=O)[C@@](C)(F)C(=O)[C@H](C)[C@@H](O[C@@H]2O[C@H](C)C[C@H](N(C)C)[C@H]2O)[C@](C)(OC)C[C@@H](C)C(=O)[C@H](C)[C@H]2N(CCCCn3cc(-c4ccc(N)cc4)nn3)C(=O)O[C@]12C,MIC,Escherichia coli [1],> 32 µg/mL
same,Ratio,Escherichia coli [13],2
same,Ratio,Escherichia coli [19],2
same,MIC,Escherichia coli [2],16 µg/mL
same,MIC,Staphylococcus aureus [3],16 µg/mL
same,MIC,Enterococcus faecium [4],24 ng/mL
same,Ratio,Escherichia coli [18],2
same,MIC,Staphylococcus aureus [5],16 µg/mL
same,MIC,Escherichia coli [6],4 µg/mL
same,MIC,Escherichia coli [7],1 µg/mL
same,MIC,Staphylococcus aureus [8],8 µg/mL
same,MIC,Staphylococcus aureus [9],≤ 0.031 µg/mL
same,MIC,Escherichia coli [11],1 µg/mL
same,MIC,Acinetobacter baumannii [12],25 µg/mL
CC[C@H]1OC(=O)[C@@](C)(F)C(=O)[C@H](C)[C@@H](O[C@@H]2O[C@H](C)C[C@H](N(C)C)[C@H]2O)[C@](C)(OC)C[C@@H](C)C(=O)[C@H](C)[C@H]2N(CCCCn3cc(-c4cccs4)nn3)C(=O)O[C@]12C,MIC,Escherichia coli [1],> 64 µg/mL
same,MIC,Escherichia coli [2],32 µg/mL
same,Ratio,Acinetobacter baumannii [17],4
same,MIC,Staphylococcus aureus [3],32 µg/mL
same,MIC,Enterococcus faecium [4],49 ng/mL
same,MIC,Staphylococcus aureus [5],8 µg/mL
same,MIC,Escherichia coli [6],1 µg/mL
same,MIC,Escherichia coli [7],1 µg/mL
same,MIC,Staphylococcus aureus [8],8 µg/mL
same,MIC,Staphylococcus aureus [9],≤ 0.0625 µg/mL
same,MIC,Escherichia coli [11],2 µg/mL
same,MIC,Acinetobacter baumannii [12],6.5 µg/mL
CC[C@H]1OC(=O)[C@@](C)(F)C(=O)[C@H](C)[C@@H](O[C@@H]2O[C@H](C)C[C@H](N(C)C)[C@H]2O)[C@](C)(OC)C[C@@H](C)C(=O)[C@H](C)[C@H]2N(CCCCn3cc(-c4cccc(NC(C)=O)c4)nn3)C(=O)O[C@]12C,MIC,Escherichia coli [1],> 64 µg/mL
same,Ratio,Staphylococcus aureus [20],4 - 8
same,MIC,Escherichia coli [2],64 µg/mL
same,MIC,Staphylococcus aureus [3],> 128 µg/mL
same,MIC,Enterococcus faecium [4],24 ng/mL
same,MIC,Staphylococcus aureus [5],64 µg/mL
same,MIC,Escherichia coli [6],8 µg/mL
same,MIC,Escherichia coli [7],4 µg/mL
same,MIC,Staphylococcus aureus [8],64 µg/mL
same,MIC,Staphylococcus aureus [9],0.016 µg/mL
same,MIC,Escherichia coli [11],4 µg/mL
same,MIC,Acinetobacter baumannii [12],50 µg/mL
CC[C@H]1OC(=O)[C@H](C)[C@@H](O[C@H]2C[C@@](C)(OC)[C@@H](O)[C@H](C)O2)[C@H](C)[C@@H](O[C@@H]2O[C@H](C)C[C@H](N(C)C)[C@H]2O)[C@](C)(O)C[C@@H](C)CN(C)[C@H](C)[C@@H](O)[C@]1(C)O [AZITHROMYCIN],MIC,Enterococcus faecium [4],25000 ng/mL
CC[C@H]1OC(=O)[C@H](C)[C@@H](O[C@H]2C[C@@](C)(OC)[C@@H](O)[C@H](C)O2)[C@H](C)[C@@H](O[C@@H]2O[C@H](C)C[C@H](N(C)C)[C@H]2O)[C@](C)(O)C[C@@H](C)C(=O)[C@H](C)[C@@H](O)[C@]1(C)O [ERYTHROMYCIN],MIC,Enterococcus faecium [4],12000 ng/mL
CC[C@H]1OC(=O)[C@@](C)(F)C(=O)[C@H](C)[C@@H](O[C@@H]2O[C@H](C)C[C@H](N(C)C)[C@H]2O)[C@](C)(OC)C[C@@H](C)C(=O)[C@H](C)[C@H]2N(CCCCn3cc(-c4cccc(N)c4)nn3)C(=O)O[C@]12C [SOLITHROMYCIN],MIC,Escherichia coli [1],> 32 µg/mL
same,MIC,Escherichia coli [2],> 32 µg/mL
same,MIC,Staphylococcus aureus [3],8 µg/mL
same,MIC,Enterococcus faecium [4],24 ng/mL
same,MIC,Staphylococcus aureus [5],4 µg/mL
same,MIC,Escherichia coli [6],4 µg/mL
same,MIC,Escherichia coli [7],2 µg/mL
same,MIC,Staphylococcus aureus [8],4 µg/mL
same,MIC,Staphylococcus aureus [9],0.06 to 0.12 µg/mL
same,MIC,Escherichia coli [11],2 µg/mL
same,MIC,Acinetobacter baumannii [12],25 µg/mL

# — ChEMBL document CHEMBL4340531, “Synthesis and biological evaluation of solithromycin analogs against multidrug resistant pathogens” (Bioorg Med Chem Lett, 2019)
